This assay deals with Erwinia amylovora 385. Briefly: Reduction of the Erwinia amylovora population on apple blossom. Type of assay: in vivo. As to conditions: 0.06% streptomycin; apple blossom cv. Gala; 10^6 bacteria/ml; sprayed one hour after inoculation; 6 days at 20 to 23° C.; tests 4 to 6. The procedure:
2. Testing the Reduction of the Erwinia amylovora Population on Apple Blossom
Test plants: Apple blossom cv. Gala
Apple blossom cv. Gala were used in the following tests. The trees had not been treated with plant protection compositions. The flowers were placed by the petiole into a 10% strength sucrose solution and incubated in a humid chamber. 24 flowers were employed per treatment and repletition, and the test was repeated in each case three times.
Pathogen: Erwinia amylovora 385 was grown on agar plates. The apple blossom was inoculated with a suspension of 10^6 bacteria/ml.
Plant Treatment Composition:
1 part by weight of a solid formulation comprising
63.75% by weight of calcium formate
18.75% by weight of citric acid
16.73% by weight of calcium chloride
0.77% by weight of wetting agent and anti-dust agent were dissolved in 50 parts by weight (P 2%) of tap water and the solution was used for the following treatment. The pH was 4.1.
To carry out the treatments, the blossom was sprayed with the respective solution one hour after the inoculation, the chamber was sealed, and the contents were incubated for 6 days at 20 to 23° C.
(1-3) Water as the control
(4-6) 0.06% streptomycin (for comparison)

Where “and” joins values, the source holds several entries; their conditions need not be identical. Equal values may be shown once.

Regarding `[H]/N=C(/N)N[C@H]1[C@H](O)[C@@H](O)[C@H](O[C@@H]2O[C@@H](C)[C@](O)(C=O)[C@H]2O[C@@H]2O[C@@H](CO)[C@H](O)[C@@H](O)[C@@H]2NC)[C@@H](N/C(N)=N\[H])[C@@H]1O` [streptomycin], the Efficacy is 84.6% and 89.5% and 95.5%.

(Values after patent US20110165267A1, “AGENTS FOR TREATING AND/OR AVOIDING FIRE BLIGHT” (LANXESS DISTRIBUTION GMBH, priority 2008, published 2011).)
